# Measured values reported in publication PMC5582420, “Hirsutine, an Indole Alkaloid of Uncaria rhynchophylla, Inhibits Late Step in Dengue Virus Lifecycle” (Frontiers in Microbiology, 2017).
# What was measured:
# [1] = tested on: DENV-1 (02-20 strain); assay: Plaque assay, EC50 against DENV-1 (fourth screening); format: cell-based, Dengue virus; conditions: compounds; for EC50: Dengue virus, DENV1, against DENV-1, plaque assay, Reed and Muench method; for SI: selectivity index from CC50 and EC50
# [2] = MTT cytotoxicity assay; format: cell-based; conditions: human, compounds, A549 cells, 3-day incubation
# Method: Human lung carcinoma cells (A549) and baby hamster kidney cells (BHK-21) were maintained in Eagle’s minimum essential medium (EMEM; Life Technologies, Carlsbad, CA, United States) supplemented with 10% fetal bovine serum (FBS; JR Scientific, Woodland, CA, United States), penicillin, and streptomycin sulfate (Nacalai Tesque, Kyoto, Japan) at 37°C with 5% CO2. Hybridoma-producing anti-E antibody (HB-112) was maintained in RPMI 1640 medium (Life Technologies, Carlsbad, CA, United States) supplemented with 10% FBS and antibiotics at 37°C with 5% CO2.
# Cell viability was assessed by 3-(4,5-dimethylthiazol-2-yl)-2,5-diphenyltetrazolium bromide (MTT) assay. A549 cells were cultured in a 96-well plate with the selected compound (0–10 μM) or extract (0–100 μg/mL). After a 3-day incubation, 30 μL of 0.5% MTT solution was added to each well. After incubation for 3 h, the supernatant was replaced with 100 μL of methanol with 1% Triton X-100, and then vortexed to dissolve the formazan. Absorbance at 565 nm and reference at 655 nm were measured using a microplate reader (Berthold Technologies, Bad Wildbad, Germany). The half-maximal cytotoxicity concentration (CC50) was calculated using the Reed and Muench method ([Reed and Muench, 1938]).
# [3] = tested on: DENV-1 (02-20 strain); assay: Virus titer by plaque assay in infected A549 cells, DENV-1; format: cell-based, Dengue virus; conditions: 10 μM, MOI 0.01, supernatant 72 hpi
# Method: (§1) The viruses used in this study included DENV-1 (02-20 strain) ([Tajima et al., 2006]), DENV-2 (16681 strain), DENV-3 (09-59 strain), and DENV-4 (09-48 strain). The strains were cultured in Vero cells, and stored at -80°C. Dengue virus titer was determined by plaque assay as summarized below.
# (§2) Baby hamster kidney-21 cells were cultured in a 12-well plate and infected with serial dilutions of virus suspension, then incubated at 37°C for 1 h. At 1 hpi, cells were incubated in EMEM containing 2% FBS and 1% methylcellulose. After 5 days of incubation, the cells were fixed with paraformaldehyde and stained with methylene blue. Virus titer was calculated as plaque-forming units (PFU)/mL. The half-maximal effective concentration (EC50) against each virus was calculated using the Reed and Muench method.
# (§3) FIGURE 1 Hirsutine inhibits replication of dengue virus serotypes DENV-1–4. (A) Structural formula of hirsutine. (B) Hirsutine inhibits viral replication of all four serotypes. A549 cells were infected with DENV-1–4 at a multiplicity of infection (MOI) of 0.01 in the presence of 10 μM hirsutine. Cell culture supernatants were collected 72 hpi, and viral titers were determined by plaque assay. All data were normalized to their control (0 μM of hirsutine).
# [4] = tested on: DENV-2 (16681 strain); assay: Virus titer by plaque assay in infected A549 cells, DENV-2; format: cell-based, Dengue virus; conditions: 10 μM, MOI 0.01, supernatant 72 hpi
# Method: as §1, §2, §3
# [5] = tested on: DENV-3 (09-59 strain); assay: Virus titer by plaque assay in infected A549 cells, DENV-3; format: cell-based, Dengue virus; conditions: 10 μM, MOI 0.01, supernatant 72 hpi
# Method: as §1, §2, §3
# [6] = tested on: DENV-4 (09-48 strain); assay: Virus titer by plaque assay in infected A549 cells, DENV-4; format: cell-based, Dengue virus; conditions: 10 μM, MOI 0.01, supernatant 72 hpi
# Method: as §1, §2, §3
# [7] = tested on: DENV-1; assay: Time-of-drug-addition assay; format: cell-based, Dengue virus; conditions: 10 μM added at 0, 2, 4, 6, 8, 12, 18 hpi; A549, MOI 1.0; titer at 24 hpi
# Method: Next, the cells were rinsed twice with phosphate-buffered saline, and fresh medium was added. At 0, 2, 4, 6, 8, 12, and 18 hpi, hirsutine at a final concentration of 10 μM was added to the infected cells. At 24 hpi, the cell culture supernatant was collected, and viral titer was assessed by plaque assay.
# (§4) FIGURE 2 Hirsutine inhibits the late stage of the dengue virus lifecycle. (A) Time-of-drug-addition assay. Hirsutine (10 μM) was added at 0, 2, 4, 6, 8, 12, and 18 h post-DENV-1 infection. After 24 h, virus titers in the culture supernatant were analyzed by plaque assay. (B) Time-of-drug-elimination assay. Hirsutine (10 μM) was treated for 0–2, 0–4, and 0–6 h post-DENV-1 infection. After 24 h, virus titers in the culture supernatant were analyzed by plaque assay. ^∗p < 0.05. […] DMSO, dimethyl sulfoxide; hpi, hours post-infection; and PFU, plaque-forming units.
# [8] = tested on: DENV-1; assay: Time-of-drug-elimination assay; format: cell-based, Dengue virus; conditions: 10 μM, A549, MOI 1.0, titer at 24 hpi
# Method: Next, the cells were rinsed with phosphate-buffered saline twice, and fresh medium containing 10 μM hirsutine was added. At 2, 4, and 6 hpi, the cells were rinsed with phosphate-buffered saline twice and fresh medium was added. At 24 hpi, the cell culture supernatant was collected, and viral titer was measured by plaque assay.
# as §4
# [9] = tested on: DENV-NS3 protein expression, DENV-1; assay: Western blot of DENV-NS3 protein in DENV-1-infected A549 cells; format: cell-based, Dengue virus; conditions: MOI 0.1 and 1.0, 18 hpi
# Method: Western blotting was performed as described previously ([Hishiki et al., 2014]). Briefly, DENV-1-infected A549 cells were co-cultured with 10 μM hirsutine, 100 μM ribavirin, or 10 μM bromocriptine. Protein samples were separated by SDS-PAGE and transferred to polyvinylidene fluoride blotting membranes (GE Healthcare, Little Chalfont, United Kingdom). Anti-NS3 rabbit polyclonal antibodies (GTX124252; GeneTex, Irvine, CA, United States) and anti-glyceraldehyde-3-phosphate dehydrogenase (GAPDH) mouse monoclonal antibodies (MAB374; Millipore, Billerica, MA, United States) were used as primary antibodies.
# A549 cells were infected with DENV-1 at a MOI of 0.1 and 1.0 in the presence of 10 μM hirsutine (Hi), 100 μM ribavirin (Ri), or 10 μM bromocriptine (Br). Cell lysate was collected 18 h post-infection, and DENV-NS3 (top) and GAPDH (bottom) protein expression levels were assessed by Western blot.
# [10] = tested on: influenza A virus (subtype H3N2); design: method as in Takayama et al., 1997; Tietze and Zhou, 1999; conditions: ref Takayama et al., 1997, Tietze and Zhou, 1999; cited from earlier work
# [11] = tested on: DGL2 and DGL2-mut DENV-1 replicon; assay: Transient subgenomic reporter replicon assay (Gaussia luciferase); conditions: 10 μM, A549 cells
# Method: A549 cells were cultured in a 24-well plate and transfected with DGL2 and DGL2-mut using X-tremeGENE HP DNA transfection reagent (Roche, Basel, Switzerland); 10 μM of hirsutine was added at baseline. The cell culture medium was collected and replaced with fresh medium containing 10 μM of hirsutine every 24 h. The Gaussia luciferase activity in the culture medium was measured using a microplate reader.
# (A) Schematic representation of the replicon system, which uses DGL2 and DGL2-mut. DGL2-mut was inserted in non-replicative mutation into RNA-dependent RNA polymerase (RdRp). CMVp, cytomegalovirus promoter; Gluc, secretory Gaussia luciferase; IRES, internal ribosome entry site; GAA, mutation in the active center for RdRp; and Rib, ribozyme sequence. (B) Replicon plasmids DGL2 and DGL2-mut were transfected to A549 cells in the presence of 10 μM hirsutine. After 24 and 72 h, luciferase activity in the culture supernatant was analyzed. Each data point represents the mean ± standard deviation from triplicate experiments.
smiles,measurement,setting,value
CC[C@H]1CN2CCc3c([nH]c4ccccc34)[C@H]2C[C@@H]1/C(=C\OC)C(=O)OC [Hirsutine],EC50,[1],1970 nM
same,SI,[1],>5.3
same,CC50 at 3 day,[2],> 10000 nM
same,virus titer,[3],decreased
same,virus titer,[4],decreased
same,virus titer,[5],decreased
same,virus titer,[6],decreased
same,"virus titer in culture supernatant, time-of-drug-addition",[7],reduced the virus titer significantly up to 12 hpi
same,"virus titer in culture supernatant, time-of-drug-elimination",[8]; 2-h treatment,did not decrease the virus titer
same,"virus titer in culture supernatant, time-of-drug-elimination",[8]; 4-h treatment,did decrease
same,NS3 protein expression levels,[9]; 10 μM,did not change
same,EC50 more effective than ribavirin,[10],over 10 fold
same,Gaussia luciferase activity in culture supernatant,"[11]; DGL2, 24 h and 72 h post-transfection",did not reduce luciferase activity levels
same,Gaussia luciferase activity in culture supernatant,"[11]; non-replicate DGL2-mut, 24 h and 72 h post-transfection",did not reduce luciferase activity levels
C[C@H]1CC[C@@]2(OC1)O[C@H]1C[C@H]3[C@@H]4CC[C@@H]5C[C@@H](O[C@@H]6O[C@H](CO)[C@H](O)[C@H](O)[C@H]6O[C@@H]6O[C@H](CO)[C@@H](O)[C@H](O)[C@H]6O)CC[C@]5(C)[C@H]4CC[C@]3(C)[C@H]1[C@@H]2C [Timosaponin-AIII],EC50,[1],1700 nM
same,SI,[1],>5.9
same,CC50 at 3 day,[2],> 10000 nM
CC(C)C[C@H]1C(=O)N2CCC[C@H]2[C@]2(O)O[C@](NC(=O)[C@@H]3C=C4c5cccc6[nH]c(Br)c(c56)C[C@H]4N(C)C3)(C(C)C)C(=O)N12 [bromocriptine],NS3 protein expression levels,[9]; 10 μM,decreased significantly
NC(=O)c1ncn([C@@H]2O[C@H](CO)[C@@H](O)[C@H]2O)n1 [ribavirin],NS3 protein expression levels,[9]; 100 μM,decreased significantly
